Source: patent US20240109917A1 (ACTELION PHARMACEUTICALS LTD, priority 2020, published 2024)

How the values were obtained:
[1] = target: His6-TEV-PDGFRβ (557-1016) (Homo sapiens (Human), UniProt P09619); assay: PDGFRβ HTRF Assay; assay type: biochemical; settings: read-out: PDGFR HTRF IC50
Summary of the method: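 HTRF KinEASE-TK readout (665/620 nm ratio) of TK-biotin substrate phosphorylation by His-tagged PDGFRβ kinase domain. Enzyme and inhibitor preincubated 30 min, then ATP/substrate added for 3 h at room temperature before 60 min EDTA quench/detection.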

[2] = target: Tb-labeled inactive PDGFRβ (Homo sapiens (Human), UniProt P09619); assay: PDGFRβ LanthaScreen Assay; assay type: binding; settings: read-out: PDGFR Lantha IC50
VEGFR2, unphosphorylated = VEGFR2, unphosphorylated (Homo sapiens (Human), UniProt P35968); assay: VEGFR ADP GLO Assay; assay type: biochemical
Sequence of VEGFR2, unphosphorylated (P35968 20-1356): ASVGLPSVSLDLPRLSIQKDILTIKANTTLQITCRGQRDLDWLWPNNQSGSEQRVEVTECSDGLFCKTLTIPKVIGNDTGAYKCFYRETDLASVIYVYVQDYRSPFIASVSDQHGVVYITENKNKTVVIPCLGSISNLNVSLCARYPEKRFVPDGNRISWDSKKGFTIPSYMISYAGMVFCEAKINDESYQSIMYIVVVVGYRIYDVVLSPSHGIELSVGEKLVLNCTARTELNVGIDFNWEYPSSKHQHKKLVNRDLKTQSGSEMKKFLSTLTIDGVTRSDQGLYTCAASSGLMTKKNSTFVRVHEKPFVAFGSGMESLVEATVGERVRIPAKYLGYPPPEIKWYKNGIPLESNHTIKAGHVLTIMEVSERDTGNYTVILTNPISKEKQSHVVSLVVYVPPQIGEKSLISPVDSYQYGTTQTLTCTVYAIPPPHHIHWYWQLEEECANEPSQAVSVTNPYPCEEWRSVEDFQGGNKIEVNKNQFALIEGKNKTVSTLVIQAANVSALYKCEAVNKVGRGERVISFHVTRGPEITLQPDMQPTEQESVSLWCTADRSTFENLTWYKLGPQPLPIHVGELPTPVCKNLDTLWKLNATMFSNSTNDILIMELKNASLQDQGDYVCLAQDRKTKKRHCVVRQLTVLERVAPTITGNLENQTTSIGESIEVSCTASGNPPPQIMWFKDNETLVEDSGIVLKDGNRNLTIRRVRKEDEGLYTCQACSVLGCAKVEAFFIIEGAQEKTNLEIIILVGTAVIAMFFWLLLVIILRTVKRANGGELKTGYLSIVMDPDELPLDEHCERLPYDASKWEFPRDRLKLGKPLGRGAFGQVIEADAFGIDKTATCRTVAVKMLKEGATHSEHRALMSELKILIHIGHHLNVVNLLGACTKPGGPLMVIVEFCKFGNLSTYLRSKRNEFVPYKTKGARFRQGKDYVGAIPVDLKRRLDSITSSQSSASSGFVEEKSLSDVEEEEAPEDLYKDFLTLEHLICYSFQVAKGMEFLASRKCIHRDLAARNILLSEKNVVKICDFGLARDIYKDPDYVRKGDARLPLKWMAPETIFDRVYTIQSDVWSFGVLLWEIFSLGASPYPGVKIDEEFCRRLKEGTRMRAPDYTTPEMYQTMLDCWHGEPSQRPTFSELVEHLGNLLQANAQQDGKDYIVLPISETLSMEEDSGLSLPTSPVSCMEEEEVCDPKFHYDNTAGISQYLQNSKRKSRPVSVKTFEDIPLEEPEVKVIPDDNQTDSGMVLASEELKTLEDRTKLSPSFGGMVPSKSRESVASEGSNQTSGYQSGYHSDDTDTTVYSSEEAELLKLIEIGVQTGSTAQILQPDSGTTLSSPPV

Sequence of Tb-labeled inactive PDGFRβ (P09619 33-1106): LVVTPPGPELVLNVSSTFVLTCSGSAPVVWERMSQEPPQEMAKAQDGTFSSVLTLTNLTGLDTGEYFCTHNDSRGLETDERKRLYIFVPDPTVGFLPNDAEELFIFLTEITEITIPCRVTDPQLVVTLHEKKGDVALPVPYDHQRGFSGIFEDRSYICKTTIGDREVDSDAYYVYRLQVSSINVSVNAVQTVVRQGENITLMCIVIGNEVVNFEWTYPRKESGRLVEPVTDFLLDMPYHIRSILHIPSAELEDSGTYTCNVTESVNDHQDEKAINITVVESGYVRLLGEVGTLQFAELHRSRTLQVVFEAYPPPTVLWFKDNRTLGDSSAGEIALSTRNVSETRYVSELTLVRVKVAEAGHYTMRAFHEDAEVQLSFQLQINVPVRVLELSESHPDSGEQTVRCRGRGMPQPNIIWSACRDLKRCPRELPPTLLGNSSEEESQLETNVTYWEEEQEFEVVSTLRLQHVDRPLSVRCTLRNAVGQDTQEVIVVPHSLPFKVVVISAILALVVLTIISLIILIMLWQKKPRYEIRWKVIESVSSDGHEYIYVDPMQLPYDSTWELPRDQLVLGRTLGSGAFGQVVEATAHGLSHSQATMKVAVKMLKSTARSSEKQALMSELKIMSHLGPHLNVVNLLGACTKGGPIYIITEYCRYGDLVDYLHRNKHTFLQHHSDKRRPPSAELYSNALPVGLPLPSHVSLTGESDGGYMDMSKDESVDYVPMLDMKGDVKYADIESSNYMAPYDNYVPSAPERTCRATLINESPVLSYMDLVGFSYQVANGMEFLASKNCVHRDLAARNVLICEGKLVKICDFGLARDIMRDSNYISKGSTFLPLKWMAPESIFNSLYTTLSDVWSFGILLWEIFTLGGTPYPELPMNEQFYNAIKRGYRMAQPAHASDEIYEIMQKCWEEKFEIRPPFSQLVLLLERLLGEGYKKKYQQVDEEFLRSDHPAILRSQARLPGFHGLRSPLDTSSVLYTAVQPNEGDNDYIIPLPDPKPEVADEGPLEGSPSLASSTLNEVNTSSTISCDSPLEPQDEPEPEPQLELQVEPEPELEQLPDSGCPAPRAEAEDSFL
Sequence of His6-TEV-PDGFRβ (557-1016) (P09619 557-1016): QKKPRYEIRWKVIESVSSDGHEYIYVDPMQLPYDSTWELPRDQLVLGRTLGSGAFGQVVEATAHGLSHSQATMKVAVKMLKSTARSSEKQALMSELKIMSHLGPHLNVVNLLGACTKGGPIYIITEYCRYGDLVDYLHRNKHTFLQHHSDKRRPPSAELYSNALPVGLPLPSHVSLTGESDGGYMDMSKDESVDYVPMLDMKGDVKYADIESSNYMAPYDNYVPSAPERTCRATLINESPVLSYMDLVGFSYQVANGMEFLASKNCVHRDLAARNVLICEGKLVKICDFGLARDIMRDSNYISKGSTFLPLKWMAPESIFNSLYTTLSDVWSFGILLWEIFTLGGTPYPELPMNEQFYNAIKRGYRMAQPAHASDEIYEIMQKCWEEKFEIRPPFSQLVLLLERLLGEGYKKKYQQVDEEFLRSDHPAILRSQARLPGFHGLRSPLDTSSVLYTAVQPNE

| SMILES | IC50 [1] | IC50 [2] | IC50 (VEGFR2, unphosphorylated) |
| --- | --- | --- | --- |
| CC[C@@H]1CN(CC(=O)Nc2cnc(C)c(NC(=O)c3cnn4cc(-c5cnn(C)c5)sc34)c2)CCO1 [Example 65, (R)—N-(5-(2-(2-ethylmorpholino)acetamido)-2-methylpyridin-3-yl)-2-(1-methyl-1H-pyrazol-4-yl)pyrazolo[5,1-b]thiazole-7-carboxamide] | 0.7 nM | 16.5 nM | > 7500 nM |
| COCCn1cc(-c2cn3ncc(C(=O)Nc4cc(NC(=O)CCN5C[C@H]6CC[C@@H]5C6)cnc4C)c3s2)cn1 [Example 94, N-(5-(3-((1R,4S)-2-azabicyclo[2.2.1]heptan-2-yl)propanamido)-2-methylpyridin-3-yl)-2-(1-(2-methoxyethyl)-1H-pyrazol-4-yl)pyrazolo[5,1-b]thiazole-7-carboxamide] | 0.5 nM | 14.2 nM | > 7500 nM |
| COC1CCN(CC(=O)Nc2cnc(C)c(NC(=O)c3cnn4cc(-c5cnn(C)c5)sc34)c2)CC1 [Example 83, N-(5-(2-(4-methoxypiperidin-1-yl)acetamido)-2-methylpyridin-3-yl)-2-(1-methyl-1H-pyrazol-4-yl)pyrazolo[5,1-b]thiazole-7-carboxamide] | 2.3 nM | 35 nM | > 7500 nM |
| Cc1ncc(NC(=O)CN2C[C@H](C)O[C@@H](C)C2)cc1NC(=O)c1cnn2cc(-c3cnn(C)c3)sc12 [Example 52, N-(5-(2-((2S,6S)-2,6-dimethylmorpholino)acetamido)-2-methylpyridin-3-yl)-2-(1-methyl-1H-pyrazol-4-yl)pyrazolo[5,1-b]thiazole-7-carboxamide] | 0.3 nM | 0.8 nM | > 7500 nM |
| Cc1ncc(NC(=O)CN2Cc3ccncc3C2)cc1NC(=O)c1cnn2cc(-c3cnn(C)c3)sc12 [Example 77, N-(5-(2-(1H-pyrrolo[3,4-c]pyridin-2 (3H)-yl)acetamido)-2-methylpyridin-3-yl)-2-(1-methyl-1H-pyrazol-4-yl)pyrazolo[5,1-b]thiazole-7-carboxamide] | 1.8 nM | 15.9 nM | > 7500 nM |
| COCC1CCCN1CC(=O)Nc1cnc(C)c(NC(=O)c2cnn3cc(-c4cnn(C)c4)sc23)c1 (stereo not drawn) [Example 79, N-(5-(2-(2-(methoxymethyl)pyrrolidin-1-yl)acetamido)-2-methylpyridin-3-yl)-2-(1-methyl-1H-pyrazol-4-yl)pyrazolo[5,1-b]thiazole-7-carboxamide] | 0.8 nM | 10.9 nM | > 7500 nM |
| COCCn1cc(-c2cn3ncc(C(=O)Nc4cc(NC(=O)CCN5CC(C)(C)C5)cnc4C)c3s2)cn1 [Example 93, N-(5-(3-(3,3-dimethylazetidin-1-yl)propanamido)-2-methylpyridin-3-yl)-2-(1-(2-methoxyethyl)-1H-pyrazol-4-yl)pyrazolo[5,1-b]thiazole-7-carboxamide] | 0.9 nM | 29.1 nM | > 7500 nM |
| Cc1ncc(NC(=O)CN2CCC2(C)C)cc1NC(=O)c1cnn2cc(-c3cnn(C)c3)sc12 [Example 82, N-(5-(2-(2,2-dimethylazetidin-1-yl)acetamido)-2-methylpyridin-3-yl)-2-(1-methyl-1H-pyrazol-4-yl)pyrazolo[5,1-b]thiazole-7-carboxamide] | 1.6 nM | 24.3 nM | > 7500 nM |
| COCCn1cc(-c2cn3ncc(C(=O)Nc4cc(NC(=O)C(C)(C)CN5CCCC5(C)C)cnc4C)c3s2)cn1 [Example 488, N-(5-(3-(2,2-dimethylpyrrolidin-1-yl)-2,2-dimethyl-propanamido)-2-methylpyridin-3-yl)-2-(1-(2-methoxyethyl)-1H-pyrazol-4-yl)pyrazolo[5,1-b]thiazole-7-carboxamide] | 92.3 nM | 1280 nM | > 7500 nM |
| Cc1ncc(NC(=O)CN2CCC[C@@H]2C)cc1NC(=O)c1cnn2cc(-c3cnn(CCO)c3)sc12 [Example 84, (S)-2-(1-(2-hydroxyethyl)-1H-pyrazol-4-yl)-N-(2-methyl-5-(2-(2-methylpyrrolidin-1-yl)acetamido)pyridin-3-yl)pyrazolo[5,1-b]thiazole-7-carboxamide] | 0.9 nM | 10.9 nM | > 7500 nM |
| Cc1ncc(NC(=O)OC[C@@H]2CCCN2C)cc1NC(=O)c1cnn2cc(-c3cn(C)nc3C)sc12 [Example 496, (S)-(1-methylpyrrolidin-2-yl)methyl (5-(2-(1,3-dimethyl-1H-pyrazol-4-yl)pyrazolo[5,1-b]thiazole-7-carboxamido)-6-methylpyridin-3-yl)carbamate] | 0.3 nM | 2.8 nM | > 7500 nM |
| Cc1ncc(NC(=O)CN2CCc3scnc3C2)cc1NC(=O)c1cnn2cc(-c3cnn(C)c3)sc12 [Example 61, N-(5-(2-(6,7-dihydrothiazolo[4,5-c]pyridin-5 (4H)-yl)acetamido)-2-methylpyridin-3-yl)-2-(1-methyl-1H-pyrazol-4-yl)pyrazolo[5,1-b]thiazole-7-carboxamide] | 0.8 nM | 12.3 nM | > 7500 nM |
| Cc1ncc(NC(=O)CN2CCOC[C@H]2C)cc1NC(=O)c1cnn2cc(-c3cnn(C)c3)sc12 [Example 50, (R)-2-(1-methyl-1H-pyrazol-4-yl)-N-(2-methyl-5-(2-(3-methylmorpholino)acetamido)pyridin-3-yl)pyrazolo[5,1-b]thiazole-7-carboxamide] | 0.6 nM | 14 nM | > 7500 nM |
| Cc1ncc(NC(=O)CN2CCc3ncsc3C2)cc1NC(=O)c1cnn2cc(-c3cnn(C)c3)sc12 [Example 58, N-(5-(2-(6,7-dihydrothiazolo[5,4-c]pyridin-5 (4H)-yl)acetamido)-2-methylpyridin-3-yl)-2-(1-methyl-1H-pyrazol-4-yl)pyrazolo[5,1-b]thiazole-7-carboxamide] | 1 nM | 12.5 nM | > 7500 nM |
| Cc1ncc(NC(=O)CN2CCC(F)(F)C2)cc1NC(=O)c1cnn2cc(-c3cnn(C)c3)sc12 [Example 73, N-(5-(2-(3,3-difluoropyrrolidin-1-yl)acetamido)-2-methylpyridin-3-yl)-2-(1-methyl-1H-pyrazol-4-yl)pyrazolo[5,1-b]thiazole-7-carboxamide] | 0.3 nM | 1.7 nM | > 7500 nM |
| Cc1ncc(NC(=O)CN2CCc3ncccc3C2)cc1NC(=O)c1cnn2cc(-c3cnn(C)c3)sc12 [Example 63, N-(5-(2-(7,8-dihydro-1,6-naphthyridin-6 (5H)-yl)acetamido)-2-methylpyridin-3-yl)-2-(1-methyl-1H-pyrazol-4-yl)pyrazolo[5,1-b]thiazole-7-carboxamide] | 2.9 nM | 42.9 nM | > 7500 nM |
| COCCn1cc(-c2cn3ncc(C(=O)Nc4cc(NC(=O)CCN5C[C@@H]6CC[C@H]5C6)cnc4C)c3s2)cn1 [Example 92, N-(5-(3-((1S,4R)-2-azabicyclo[2.2.1]heptan-2-yl)propanamido)-2-methylpyridin-3-yl)-2-(1-(2-methoxyethyl)-1H-pyrazol-4-yl)pyrazolo[5,1-b]thiazole-7-carboxamide] | 0.5 nM | 7.2 nM | > 7500 nM |
| Cc1ncc(NC(=O)CN2CCOCC23CC3)cc1NC(=O)c1cnn2cc(-c3cnn(C)c3)sc12 [Example 47, N-(5-(2-(7-oxa-4-azaspiro[2.5]octan-4-yl)acetamido)-2-methylpyridin-3-yl)-2-(1-methyl-1H-pyrazol-4-yl)pyrazolo[5,1-b]thiazole-7-carboxamide] | 0.9 nM | 16.5 nM | > 7500 nM |
